Results taken from ChEMBL document CHEMBL1201862, “PubChem BioAssay data set” (2004).
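Step 1: Grow cells in 96-well plates. Step 2: Expose to compound for 48 hours at 5 concentrations. Step 3: Interpolate endpoints linearly; if unreached, use highest concentration. GI50: concentration for 50% inhibition of growth.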 The source made the active and inactive calls. No stated cut-off is given here; in the data, active = GI50 up to about 1.1 µM and inactive = higher.

Key:
Experiment in all cases: DTP human tumour cell line panel, 48 h
ACHN = test system: ACHN
BT-549 = test system: BT-549
CAKI-1 = test system: CAKI-1
EKVX = test system: EKVX
HCC 2998 = test system: HCC 2998
HCT-15 = test system: HCT-15
HOP-62 = test system: HOP-62
HT-29 = test system: HT-29
K562 = test system: K562
LOX IMVI = test system: LOX IMVI
MCF7 = test system: MCF7
MDA-MB-231 = test system: MDA-MB-231
MDA-N = test system: MDA-N
NCI/ADR-RES = test system: NCI/ADR-RES
OVCAR-3 = test system: OVCAR-3
PC-3 = test system: PC-3
SK-MEL-5 = test system: SK-MEL-5
SNB-75 = test system: SNB-75
Hs-578T = test system: Hs-578T

| Structure (SMILES) | GI50 (ACHN) | GI50 (BT-549) | GI50 (CAKI-1) | GI50 (EKVX) | GI50 (HCC 2998) | GI50 (HCT-15) [µM] | GI50 (HOP-62) | GI50 (HT-29) | GI50 (K562) | GI50 (LOX IMVI) | GI50 (MCF7) | GI50 (MDA-MB-231) | GI50 (MDA-N) | GI50 (NCI/ADR-RES) | GI50 (OVCAR-3) | GI50 (PC-3) | GI50 (SK-MEL-5) | GI50 (SNB-75) | GI50 (Hs-578T) |
| --- | --- | --- | --- | --- | --- | --- | --- | --- | --- | --- | --- | --- | --- | --- | --- | --- | --- | --- | --- |
| [O-][n+]1c(CN2CCCCC2)nc2cccc3c2c1-c1ccccc1-3 | 18.6 µM (inactive) | 48.3 µM (inactive) | 25.4 µM (inactive) | 18.4 µM (inactive) | 15 µM (inactive) | 26.9 | 19.6 µM (inactive) | 17.3 µM (inactive) | 77.6 µM (inactive) | 19.4 µM (inactive) | 4.22 µM (inactive) | 23 µM (inactive) | 22.4 µM (inactive) | 22.4 µM (inactive) | 21.6 µM (inactive) | 31.3 µM (inactive) | 16.1 µM (inactive) | 24.6 µM (inactive) | – |
| COc1ccc2c(C)cc(C)nc2n1 | > 100 µM (inactive) | > 100 µM (inactive) | > 100 µM (inactive) | > 100 µM (inactive) | > 100 µM (inactive) | > 100 | > 100 µM (inactive) | > 100 µM (inactive) | > 100 µM (inactive) | > 100 µM (inactive) | > 100 µM (inactive) | > 100 µM (inactive) | > 100 µM (inactive) | > 100 µM (inactive) | > 100 µM (inactive) | > 100 µM (inactive) | > 100 µM (inactive) | > 100 µM (inactive) | – |
| CNC(=O)Oc1ccc(-c2cn3cc(OC(=O)NC)ccc3n2)cc1 | 29 µM (inactive) | > 100 µM (inactive) | 34.1 µM (inactive) | 96.4 µM (inactive) | 49.3 µM (inactive) | 36.1 | 80.4 µM (inactive) | 41.5 µM (inactive) | 22.6 µM (inactive) | 34.3 µM (inactive) | 32.4 µM (inactive) | > 100 µM (inactive) | 32.8 µM (inactive) | 79.1 µM (inactive) | 67.8 µM (inactive) | 49.9 µM (inactive) | 26.7 µM (inactive) | 62.4 µM (inactive) | – |
| N#CC(C#N)=Cn1c(=S)[nH]c2ccccc21 | > 100 µM (inactive) | – | > 100 µM (inactive) | 78.3 µM (inactive) | > 100 µM (inactive) | – | > 100 µM (inactive) | > 100 µM (inactive) | > 100 µM (inactive) | > 100 µM (inactive) | > 100 µM (inactive) | > 100 µM (inactive) | > 100 µM (inactive) | > 100 µM (inactive) | > 100 µM (inactive) | > 100 µM (inactive) | > 100 µM (inactive) | 50.8 µM (inactive) | > 100 µM (inactive) |
| COC(=O)c1c(C(=O)OC)c2ccc(-c3ccc(Cl)cc3)nn2c1C(=O)c1ccc([N+](=O)[O-])cc1 | 43 µM (inactive) | – | 32.9 µM (inactive) | 27.4 µM (inactive) | > 100 µM (inactive) | 25.2 | > 100 µM (inactive) | 37.2 µM (inactive) | 14.2 µM (inactive) | 39 µM (inactive) | 40.2 µM (inactive) | > 100 µM (inactive) | 66.2 µM (inactive) | > 100 µM (inactive) | 43.5 µM (inactive) | > 100 µM (inactive) | 52.1 µM (inactive) | – | – |
| C[C@@H]1OC(=O)C[C@H]2CC(=O)N(CCC3CN(S(=O)(=O)C(F)(F)F)c4ccccc43)C[C@@H]21 (stereo partly specified) | > 100 µM (inactive) | – | > 100 µM (inactive) | > 100 µM (inactive) | > 100 µM (inactive) | > 100 | > 100 µM (inactive) | > 100 µM (inactive) | > 100 µM (inactive) | – | > 100 µM (inactive) | > 100 µM (inactive) | – | > 100 µM (inactive) | > 100 µM (inactive) | > 100 µM (inactive) | > 100 µM (inactive) | – | 85.1 µM (inactive) |
| Cc1c(C)c(S(=O)(=O)N(CCCCN)OCCCN)c(C)c2c1OC(C)(C)CC2 | 20.8 µM (inactive) | – | 32.1 µM (inactive) | 16 µM (inactive) | 6.08 µM (inactive) | 21.5 | 13.4 µM (inactive) | 17.6 µM (inactive) | 32.4 µM (inactive) | 6.22 µM (inactive) | 26.6 µM (inactive) | 21.7 µM (inactive) | 22.8 µM (inactive) | 74.6 µM (inactive) | 13.3 µM (inactive) | 5.47 µM (inactive) | 33 µM (inactive) | 13.8 µM (inactive) | 13.2 µM (inactive) |
| C=C1CCN2CC[C@@H](OC(=O)/C(C)=C\C)[C@@H]12 | > 100 µM (inactive) | – | > 100 µM (inactive) | > 100 µM (inactive) | > 100 µM (inactive) | > 100 | > 100 µM (inactive) | 66.2 µM (inactive) | > 100 µM (inactive) | > 100 µM (inactive) | > 100 µM (inactive) | > 100 µM (inactive) | > 100 µM (inactive) | > 100 µM (inactive) | > 100 µM (inactive) | > 100 µM (inactive) | > 100 µM (inactive) | > 100 µM (inactive) | > 100 µM (inactive) |
| O=P1(O)C=CC2(CCCC2)O1 | > 100 µM (inactive) | – | – | > 100 µM (inactive) | > 100 µM (inactive) | > 100 | > 100 µM (inactive) | > 100 µM (inactive) | > 100 µM (inactive) | > 100 µM (inactive) | > 100 µM (inactive) | – | > 100 µM (inactive) | > 100 µM (inactive) | > 100 µM (inactive) | > 100 µM (inactive) | > 100 µM (inactive) | > 100 µM (inactive) | – |
| COC1OC(COC(=O)c2cc(O)c(O)c(O)c2)C(OC(=O)c2cc(O)c(O)c(O)c2)C(OC(=O)c2cc(O)c(O)c(O)c2)C1OC(=O)c1cc(O)c(O)c(O)c1 (stereo unspecified) | 19 µM (inactive) | – | 41.4 µM (inactive) | 25.9 µM (inactive) | 58.2 µM (inactive) | 47.2 | 7.33 µM (inactive) | 33.5 µM (inactive) | 21.5 µM (inactive) | 13.5 µM (inactive) | > 100 µM (inactive) | 26.2 µM (inactive) | 27.8 µM (inactive) | 29.2 µM (inactive) | 29.9 µM (inactive) | 50.7 µM (inactive) | 13.3 µM (inactive) | 26.3 µM (inactive) | > 100 µM (inactive) |
| OC[C@H]1CCCC1O (stereo partly specified) | > 100 µM (inactive) | > 100 µM (inactive) | > 100 µM (inactive) | – | > 100 µM (inactive) | > 100 | – | > 100 µM (inactive) | > 100 µM (inactive) | – | > 100 µM (inactive) | > 100 µM (inactive) | > 100 µM (inactive) | > 100 µM (inactive) | > 100 µM (inactive) | > 100 µM (inactive) | > 100 µM (inactive) | 73.1 µM (inactive) | – |
| COc1cc(O)c2c(=O)c(O)c(-c3ccc(O)c(OC)c3)oc2c1 [RHAMNAZIN] | – | 2 µM (inactive) | 3.5 µM (inactive) | > 22.3 µM (inactive) | 7.6 µM (inactive) | > 19.6 | – | 44.2 µM (inactive) | 4.37 µM (inactive) | 3.19 µM (inactive) | 2.72 µM (inactive) | 5.57 µM (inactive) | 4.8 µM (inactive) | 5.05 µM (inactive) | 2.52 µM (inactive) | 11 µM (inactive) | – | 2.28 µM (inactive) | – |
